The target in the assay is T1, human MCHR1 (Homo sapiens, UniProt Q99705).
T1 construct: host or cells: CHO
T1 sequence (Q99705 whole entry): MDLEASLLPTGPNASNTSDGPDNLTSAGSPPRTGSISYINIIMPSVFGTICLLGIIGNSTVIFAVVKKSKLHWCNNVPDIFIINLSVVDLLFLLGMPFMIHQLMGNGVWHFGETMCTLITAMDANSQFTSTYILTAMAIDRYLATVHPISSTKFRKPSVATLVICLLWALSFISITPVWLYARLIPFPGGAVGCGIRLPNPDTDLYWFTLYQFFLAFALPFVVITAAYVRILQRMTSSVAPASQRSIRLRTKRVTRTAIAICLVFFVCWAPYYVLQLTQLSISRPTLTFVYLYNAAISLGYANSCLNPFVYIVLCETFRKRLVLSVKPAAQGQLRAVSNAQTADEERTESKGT
As to the kind of experiment: Cyclic AMP assay (MCHR-1 functional antagonism). The assay is classed as cell-based. The conditions noted are these: CHO cells stably expressing human MCHR1; cAMP accumulation with 25 uM forskolin and 0.2 nM MCH, 90 min; Ki from IC50 by Cheng-Prusoff; read-out: MCHR-1 functional Ki.
Usually Ki stands for a measure of affinity in units of concentration, obtained from inhibition or displacement. For the molecule `CCCC(=O)N[C@H]1CCN(c2ccc(-n3ccc(OCc4ccccc4)cc3=O)cn2)C1` [Example 169], the Ki turned out to be 19.4 nM.

Regarding `CC(C)C(=O)N1C[C@@H]2CN(c3ccc(-n4ccc(OCc5ccc(F)cc5)cc4=O)cn3)C[C@@H]2C1` [Example 170], the Ki worked out at 29.1 nM.

Take `CCC(=O)N1C[C@@H]2CN(c3ccc(-n4ccc(OCc5ccc(F)cc5)cc4=O)cn3)C[C@@H]2C1` [Example 171]: the Ki stood at 38.1 nM.

Take `CC(=O)N(C)[C@@H]1CCN(c2ccc(-n3ccc(OCc4ccc(Cl)cc4)cc3=O)cn2)C1` [Example 172]: the Ki came out at 11 nM.

With `CC(=O)N(C)[C@H]1CCN(c2ccc(-n3ccc(OCc4ccc(Cl)cc4)cc3=O)cn2)C1` [Example 173], the Ki is 13.1 nM.

In the case of `CC(=O)N[C@H]1CCN(c2ccc(-n3ccc(OCc4ccc(Cl)cc4)cc3=O)cn2)C1` [Example 174], the Ki was 26.2 nM.

On to `CC(=O)N[C@@H]1CCN(c2ccc(-n3ccc(OCc4ccc(Cl)cc4)cc3=O)cn2)C1` [Example 175], for which the Ki came out at 58.5 nM.

Take `CCOC(=O)N[C@H]1CCN(c2ccc(-n3ccc(OCc4ccccc4)cc3=O)cn2)C1` [Example 176]: the Ki turned out to be 29.9 nM.

Turning to `CCN(C(=O)OC)[C@H]1CCN(c2ccc(-n3ccc(OCc4ccccc4)cc3=O)cn2)C1` [Example 177], the Ki stood at 19.3 nM.

`CCN(C(=O)OC)[C@@H]1CCN(c2ccc(-n3ccc(OCc4ccccc4)cc3=O)cn2)C1` [Example 178]: the Ki amounted to 19.2 nM.

As to `COC(=O)N(C)[C@@H]1CCN(c2ccc(-n3ccc(OCc4ccc(F)cc4)cc3=O)cn2)C1` [Example 179], the Ki was 18.9 nM.

`COC(=O)N(C)[C@H]1CCN(c2ccc(-n3ccc(OCc4ccc(F)cc4)cc3=O)cn2)C1` [Example 180]: the Ki amounted to 22.2 nM.

As to `COC(=O)N(C)[C@H]1CCN(c2ccc(-n3ccc(OCc4ccccc4)cc3=O)cn2)C1` [Example 181], the Ki turned out to be 10.9 nM.

As to `COC(=O)N[C@H]1CCN(c2ccc(-n3ccc(OCc4ccc(F)cc4)cc3=O)cn2)C1` [Example 186], the Ki came out at 29.8 nM.

In the case of `COC(=O)N(C)[C@@H]1CCN(c2ccc(-n3ccc(OCc4ccccc4)cc3=O)cn2)C1` [Example 187], the Ki was found to be 24.1 nM.

As for `COC(=O)N[C@@H]1CCN(c2ccc(-n3ccc(OCc4ccccc4)cc3=O)cn2)C1` [Example 188], the Ki turned out to be 218 nM.

For `COC(=O)N[C@@H]1CCN(c2ccc(-n3ccc(OCc4ccc(F)cc4)cc3=O)cn2)C1` [Example 192], the Ki was 144 nM.

With `COC(=O)NC1CN(c2ccc(-n3ccc(OCc4ccc(F)cc4)cc3=O)cn2)C1` [Example 193], the Ki came out at 196 nM.

Regarding `COC(=O)N[C@H]1CCN(c2ccc(-n3ccc(OCc4ccc(Cl)cc4)cc3=O)cn2)C1` [Example 194], the Ki stood at 46.6 nM.

As for `COC(=O)N1C[C@@H]2CN(c3ccc(-n4ccc(OCc5ccc(F)cc5)cc4=O)cn3)C[C@@H]2C1` [Example 195], the Ki is 31.3 nM.

As to `CCC(=O)N[C@@H]1CCN(c2ccc(-n3ccc(OCc4ccccc4)cc3=O)cn2)C1` [Example 196], the Ki came out at 605 nM.

As to `CN(C(=O)OC(C)(C)C)[C@@H]1CCN(c2ccc(-n3ccc(OCc4ccc(Cl)cc4)cc3=O)cn2)C1` [Example 197], the Ki turned out to be 7.7 nM.

Regarding `CN(C(=O)OC(C)(C)C)[C@H]1CCN(c2ccc(-n3ccc(OCc4ccc(Cl)cc4)cc3=O)cn2)C1` [Example 198], the Ki is 10.6 nM.

As to `O=c1cc(OCc2ccc(Cl)c(Cl)c2)ccn1-c1ccc(N2CC[C@@H](O)C2)nc1` [Example 204], the Ki stood at 330 nM.

For the molecule `O=c1cc(OCc2cccc(Cl)c2Cl)ccn1-c1ccc(N2CC[C@@H](O)C2)nc1` [Example 205], the Ki was determined as 498 nM.

In the case of `O=c1cc(OCc2ccc(F)c(Cl)c2)ccn1-c1ccc(N2CC[C@@H](O)C2)nc1` [Example 206], the Ki worked out at 250 nM.

Regarding `CC(C)N1C[C@H]2CN(c3ccc(-n4ccc(OCc5ccc(F)cc5)cc4=O)cn3)C[C@H]2C1` [Example 207], the inhibition constant Ki was 6.51 nM.

With `O=c1cc(OCc2ccc(F)cc2)ccn1-c1ccc(N2C[C@@H]3CN(C4CCC4)C[C@@H]3C2)nc1` [Example 208], the Ki was 2.72 nM.

Turning to `CC(C)N1C[C@H]2CN(c3ccc(-n4ccc(OCc5ccccc5)cc4=O)cn3)C[C@H]2C1` [Example 209], the inhibition constant Ki worked out at 10.6 nM.

Turning to `O=c1cc(OCc2ccccc2)ccn1-c1ccc(N2C[C@@H]3CN(C4CCC4)C[C@@H]3C2)nc1` [Example 210], the Ki is 4.56 nM.

`NC1CCN(c2ccc(-n3ccc(OCc4ccccc4)cc3=O)cn2)CC1` [Example 214]: the Ki was found to be 106 nM.

As for `O=c1cc(OCc2ccccc2)ccn1-c1ccc(N2CCCNCC2)nc1` [Example 216], the Ki is 78 nM.

On to `N[C@@H]1[C@H]2CN(c3ccc(-n4ccc(OCc5ccccc5)cc4=O)cn3)C[C@@H]12` [Example 217], for which the Ki is 11 nM.

For the molecule `O=c1cc(OCc2ccccc2)ccn1-c1ccc(N2CCC3(CCNC3)C2)nc1` (stereo not drawn) [Example 219], the Ki came out at 8.45 nM.

Take `O=c1cc(OCc2ccccc2)ccn1-c1ccc(N2CC3CCC(C2)N3)nc1` [Example 220]: the Ki was 513 nM.

Take `CC(C)C1CN(c2ccc(-n3ccc(OCc4ccccc4)cc3=O)cn2)CCN1` (stereo not drawn) [Example 221]: the Ki worked out at 126 nM.

As to `CC(C)CC1CN(c2ccc(-n3ccc(OCc4ccccc4)cc3=O)cn2)CCN1` (stereo not drawn) [Example 222], the Ki was 680 nM.

`CCC1CN(c2ccc(-n3ccc(OCc4ccccc4)cc3=O)cn2)CCN1` (stereo not drawn) [Example 223]: the Ki worked out at 197 nM.

`CNC1CCN(c2ccc(-n3ccc(OCc4ccccc4)cc3=O)cn2)CC1` [Example 230]: the Ki turned out to be 69.8 nM.

As for `O=c1cc(OCc2ccccc2)ccn1-c1ccc(N2C[C@H]3C[C@@H]2CN3)nc1` [Example 231], the Ki amounted to 752 nM.

Consider `NC1CN(c2ccc(-n3ccc(OCc4ccccc4)cc3=O)cn2)C1` [Example 232], for which the Ki amounted to 238 nM.

`COCC1CCCN(c2ccc(-n3ccc(OCc4ccccc4)cc3=O)cn2)CC1` (stereo not drawn) [Example 233]: the Ki was determined as 17.6 nM.

Turning to `CO[C@@H]1CCN(c2ccc(-n3ccc(OCc4ccccc4)cc3=O)cn2)C1` [Example 235], the Ki was found to be 10.9 nM.

Take `CN(C)C1CN(c2ccc(-n3ccc(OCc4ccccc4)cc3=O)cn2)C1` [Example 239]: the Ki is 41.2 nM.

Take `CC1(O)CCN(c2ccc(-n3ccc(OCc4ccccc4)cc3=O)cn2)C1` (stereo not drawn) [Example 240]: the Ki worked out at 77.5 nM.

Source of the values: US20080085884A1, “Melanin Concentrating Hormone Receptor-1 Antagonist Pyridinones” (Pfizer Inc, priority 2006, published 2008).
